Results taken from patent publication EP0555116B1, “Compositions based on antiseptics and their applications” (HUTCHINSON, priority 1992, dated 1993).
Where two headings read alike, the source gives them in different places.

How the values were obtained:
E. coli ATCC 11229 = experiment: Disinfection time test (Essai 2, Tables D-F), reaction at 22°, subcultures 72 h at 37°C; assay type: cell-based, Escherichia coli
Description: Un autre essai a été réalisé à partir des solutions suivantes : • 100 ml d'une solution à 0,1 % de digluconate de chlorhexidine (pH 6) et • 100 ml d'une solution à 0,1 % de Bardac 22®.
(§1) Les tests ont été réalisés conformément au protocole décrit dans le Chapitre I/2.1 et 2.2 de Richtlinien für die Prüfung und Bewertung chemischer Desinfektionsverfahren der DGHM, Stand 1.1., 1981).
Les tests dont les résultats sont illustrés aux Tableaux D, E et F ont été réalisés à une température de réaction de 22° avec une incubation des sous-cultures 72 heures à 37°C avec comme substances inactivantes : Tween® 80 3 % + saponine 3 % + cystéine 0,1 % + histidine 0,1 %; ces Tableaux illustrent respectivement l'activité bactéricide et fongicide d'une solution aqueuse à 0,1 % de digluconate de chlorhexidine, d'une solution aqueuse à 0,1 % de Bardac 22® et d'un mélange à part égale des deux composés et montrent l'action des antiseptiques précités, en fonction du temps de contact, et font apparaître la même synergie d'action de l'association que ci-dessus, dans la mesure où l'association des deux composés permet de diminuer significativement leur concentration, pour l'obtention d'un même effet. TABLEAU D

spermatozoïdes = experiment: Spermicidal action: vitality of spermatozoa (eosin-nigrosin, 100 spermatozoa examined); assay type: cell-based; conditions: Homo sapiens, Sperm, solution 0,5 %, read-out: vitalité des spermatozoïdes
Source text: Les différents échantillons de sperme (une goutte de sperme/échantillon) sont obtenus à partir de volontaires sains.
Une goutte de sperme est traitée par l'éosinenigrosine. Un frottis est ensuite réalisé et cent spermatozoïdes sont examinés au microscope. Les cellules mortes sont colorées en rouge, soit totalement, soit partiellement. Les cellules vivantes sont incolores.
Les substances étudiées ont été, le Bardac® et le digluconate de chlorhexidine, testés seuls et en association conformément à l'invention. Les différentes étapes du protocole sont indiquées aux Tableaux IV à VI.
Le temps de contact maximum des différentes substances et du sperme a été limité à 3 minutes afin de garantir l'efficacité de la méthode dans les conditions d'utilisation. La concentration des solutions actives dans le sperme a été limitée à 10 % afin de diminuer les risques de toxicité des produits pour les muqueuses. TABLEAU IV

[1] = test system: Candida albicans ATCC 1031; experiment: Growth inhibition test (DGHM, Essai 2, Tables A-C), 72 h at 37°C; non/A/B/C = without or with inactivating substances A, B, C; assay type: cell-based
Description: Un autre essai a été réalisé à partir des solutions suivantes : • 100 ml d'une solution à 0,1 % de digluconate de chlorhexidine (pH 6) et • 100 ml d'une solution à 0,1 % de Bardac 22®. […]
as §1
Les Tableaux A, B et C illustrent respectivement l'activité bactéricide et fongicide d'une solution aqueuse à 0,1 % de digluconate de chlorhexidine, d'une solution aqueuse à 0,1 % de Bardac 22® et d'un mélange à part égale des deux composés. Les protocoles dont ces Tableaux illustrent les résultats comprennent une incubation de 72 heures à 37°C et l'utilisation, comme témoins, des substances inactivantes suivantes : A : Tween® 80 3 % + lécithine 0,3 % + cystéine 0,1 %; B : Tween® 80 3 % + saponine 3 % + cystéine 0,1 % + histidine 0,1 %; C : Tween® 80 3 % + lécithine 0,3 % + histidine 0,1 % + thiosulfate de sodium 0,5 %.
Dans ces Tableaux, le signe "+" indique une croissance et le signe "-" l'absence de croissance.

## [H]/N=C(\N/C(=N/[H])NCCCCCCNC(=N)NC(=N)Nc1ccc(Cl)cc1)Nc1ccc(Cl)cc1 [Chlorhexidine, digluconate de chlorhexidine, reference compound]
E. coli ATCC 11229; Conc. 0,1 % (vol/vol), 1 min
  croissance: +
E. coli ATCC 11229; Conc. 0,1 % (vol/vol), 3 min
  croissance: +
E. coli ATCC 11229; Conc. 0,1 % (vol/vol), 5 min
  croissance: +
E. coli ATCC 11229; Conc. 0,1 % (vol/vol), 15 min
  croissance: +
E. coli ATCC 11229; Conc. 0,1 % (vol/vol), 30 min
  croissance: +
E. coli ATCC 11229; Conc. 0,1 % (vol/vol), 60 min
  croissance: +
E. coli ATCC 11229; Conc. 0,05 % (vol/vol), 1 min
  croissance: +
E. coli ATCC 11229; Conc. 0,5 % (vol/vol), 1 min
  croissance: +
E. coli ATCC 11229; Conc. 0,05 % (vol/vol), 3 min
  croissance: +
E. coli ATCC 11229; Conc. 0,5 % (vol/vol), 3 min
  croissance: +
E. coli ATCC 11229; Conc. 0,05 % (vol/vol), 5 min
  croissance: +
E. coli ATCC 11229; Conc. 0,5 % (vol/vol), 5 min
  croissance: +
E. coli ATCC 11229; Conc. 0,05 % (vol/vol), 15 min
  croissance: +
E. coli ATCC 11229; Conc. 0,5 % (vol/vol), 15 min
  croissance: +
E. coli ATCC 11229; Conc. 0,05 % (vol/vol), 30 min
  croissance: +
E. coli ATCC 11229; Conc. 0,5 % (vol/vol), 30 min
  croissance: +
E. coli ATCC 11229; Conc. 0,05 % (vol/vol), 60 min
  croissance: +
E. coli ATCC 11229; Conc. 0,5 % (vol/vol), 60 min
  croissance: +
E. coli ATCC 11229; Conc. 1 % (vol/vol), 1 min
  croissance: +
E. coli ATCC 11229; Conc. 1 % (vol/vol), 3 min
  croissance: +
E. coli ATCC 11229; Conc. 1 % (vol/vol), 5 min
  croissance: +
E. coli ATCC 11229; Conc. 1 % (vol/vol), 15 min
  croissance: +
E. coli ATCC 11229; Conc. 1 % (vol/vol), 30 min
  croissance: +
E. coli ATCC 11229; Conc. 1 % (vol/vol), 60 min
  croissance: +
E. coli ATCC 11229; Conc. 5 % (vol/vol), 1 min
  croissance: +
E. coli ATCC 11229; Conc. 5 % (vol/vol), 3 min
  croissance: +
E. coli ATCC 11229; Conc. 5 % (vol/vol), 5 min
  croissance: +
E. coli ATCC 11229; Conc. 5 % (vol/vol), 15 min
  croissance: +
E. coli ATCC 11229; Conc. 5 % (vol/vol), 30 min
  croissance: -
E. coli ATCC 11229; Conc. 5 % (vol/vol), 60 min
  croissance: -
E. coli ATCC 11229; Conc. 10 % (vol/vol), 1 min
  croissance: +
E. coli ATCC 11229; Conc. 10 % (vol/vol), 3 min
  croissance: +
E. coli ATCC 11229; Conc. 10 % (vol/vol), 5 min
  croissance: +
E. coli ATCC 11229; Conc. 10 % (vol/vol), 15 min
  croissance: -
E. coli ATCC 11229; Conc. 10 % (vol/vol), 30 min
  croissance: -
E. coli ATCC 11229; Conc. 10 % (vol/vol), 60 min
  croissance: -
E. coli ATCC 11229; Conc. 25 % (vol/vol), 1 min
  croissance: +
E. coli ATCC 11229; Conc. 25 % (vol/vol), 3 min
  croissance: +
E. coli ATCC 11229; Conc. 25 % (vol/vol), 5 min
  croissance: +
E. coli ATCC 11229; Conc. 25 % (vol/vol), 15 min
  croissance: -
E. coli ATCC 11229; Conc. 25 % (vol/vol), 30 min
  croissance: -
E. coli ATCC 11229; Conc. 25 % (vol/vol), 60 min
  croissance: -
spermatozoïdes; 1 min, 1 Min, 5 % dans le sperme
  viability at 0.5 %: 77 ± 10.8%
spermatozoïdes; 1 min, 1 Min, 10 % dans le sperme
  viability at 0.5 %: 77.2 ± 5.6%
spermatozoïdes; 0.05 h, 3 Min, 5 % dans le sperme
  viability at 0.5 %: 78 ± 5.7%
spermatozoïdes; 0.05 h, 3 Min, 10 % dans le sperme
  viability at 0.5 %: 75.5%
[1]; Conc. 0,1 % (vol/vol), A
  croissance: +
[1]; Conc. 0,1 % (vol/vol), B
  croissance: +
[1]; Conc. 0,1 % (vol/vol), C
  croissance: +
[1]; Conc. 0,1 % (vol/vol), non
  croissance: +
[1]; Conc. 0,05 % (vol/vol), A
  croissance: +
[1]; Conc. 0,5 % (vol/vol), A
  croissance: +
[1]; Conc. 0,05 % (vol/vol), B
  croissance: +
[1]; Conc. 0,5 % (vol/vol), B
  croissance: +
[1]; Conc. 0,05 % (vol/vol), C
  croissance: +
[1]; Conc. 0,5 % (vol/vol), C
  croissance: +
[1]; Conc. 0,05 % (vol/vol), non
  croissance: +
[1]; Conc. 0,5 % (vol/vol), non
  croissance: +
[1]; Conc. 1,0 % (vol/vol), A
  croissance: +
[1]; Conc. 1,0 % (vol/vol), B
  croissance: +
[1]; Conc. 1,0 % (vol/vol), C
  croissance: +
[1]; Conc. 1,0 % (vol/vol), non
  croissance: -
[1]; Conc. 0,00625 % (vol/vol), A
  croissance: +
[1]; Conc. 0,00625 % (vol/vol), B
  croissance: +
[1]; Conc. 0,00625 % (vol/vol), C
  croissance: +
[1]; Conc. 0,00625 % (vol/vol), non
  croissance: +
[1]; Conc. 0,0125 % (vol/vol), A
  croissance: +
[1]; Conc. 0,0125 % (vol/vol), B
  croissance: +
[1]; Conc. 0,0125 % (vol/vol), C
  croissance: +
[1]; Conc. 0,0125 % (vol/vol), non
  croissance: +
[1]; Conc. 0,025 % (vol/vol), A
  croissance: +
[1]; Conc. 0,025 % (vol/vol), B
  croissance: +
[1]; Conc. 0,025 % (vol/vol), C
  croissance: +
[1]; Conc. 0,025 % (vol/vol), non
  croissance: +
[1]; antiseptique seul
  concentration en substance active inhibant la croissance: 0,001%
